The data set can be described thus: xn = mol fraction of the nth substance listed. To be noted: 298.15 K, 100 kPa.

`CO` + CC[n+]1ccn(C)c1.N#C[S-]: the speed of sound (x1 = 1) amounted to 1103 m/s.

Take `CC[n+]1ccn(C)c1.N#C[S-]` + CCO: the speed of sound by setting is: (x2 = 0) 1851 m/s; (x2 = 0.2134) 1797 m/s; (x2 = 0.345) 1751 m/s; (x2 = 0.3836) 1729 m/s; (x2 = 0.6181) 1592 m/s; (x2 = 0.6948) 1524 m/s. This compound also came in with a speed of sound (x2 = 0.8944) of 1285 m/s.

On to `CCO` + CC[n+]1ccn(C)c1.N#C[S-], for which, under “x1 = 1”, the speed of sound came to 1142 m/s.

In the case of `CC[n+]1ccn(C)c1.N#C[S-]` + CO, the speed of sound by setting is: (x2 = 0) 1851 m/s; (x2 = 0.2018) 1813 m/s; (x2 = 0.3185) 1780 m/s; (x2 = 0.4076) 1750 m/s; (x2 = 0.5037) 1711 m/s; (x2 = 0.5936) 1655 m/s. The compound also yielded a speed of sound (x2 = 0.6923) of 1585 m/s, a speed of sound (x2 = 0.805) of 1477 m/s and a speed of sound (x2 = 0.9014) of 1328 m/s.

The values are drawn from a compilation of properties of binary mixtures (doi:10.1016/j.seppur.2020.117103).
